The refractive index is the speed of light in vacuum divided by its phase velocity in the sample. The term mass density denotes the mass of a sample divided by its volume.

Each structure is given as a SMILES string. ± gives the expanded uncertainty stated by the source.

From the NIST ThermoML archive (doi:10.1016/j.fluid.2007.01.021) come the findings set out here.

Data set [1] is described as follows: refractive index (Na D-line) (dimensionless). The conditions noted are these: 293.15 K; 101.33 kPa; Liquid; Standard Abbe refractometry.
For data set [2] the following is noted: 293.15 K; 101.33 kPa; Liquid.

`OC1CCCCC1` [cyclohexanol]: the refractive index in data set [1] amounted to 1.4639 ± 0.0006. Besides, in data set [2], the mass density was 962.3 ± 0.6 kg/m3.

As for `CC(=O)OC1CCCCC1` [cyclohexyl ethanoate], in data set [1], the refractive index came to 1.4422 ± 0.0006. Also, in data set [2], the mass density is 968.2 ± 0.5 kg/m3.

`CCCCCOC(C)=O` [pentyl ethanoate]: in data set [1], the refractive index was determined as 1.4026 ± 0.0006. For the same compound, the mass density in data set [2] came to 875 ± 0.8 kg/m3.

Regarding `CCCO` [propan-1-ol], the refractive index in data set [1] is on record as 1.385 ± 0.0006. Further, in data set [2], the mass density stood at 803.5 ± 1 kg/m3.

Turning to `O` [water], the refractive index in data set [1] turned out to be 1.3326 ± 0.0006. For the same compound, in data set [2], the mass density was 998.4 ± 0.5 kg/m3.
